Test system: 2-phenyl-1,4-benzoquinone-induced writhing in mice
Experiment: 2-phenyl-1,4-benzoquinone-induced writhing test in mice (analgesia, phenylquinone writhing, PQW)
Type: in vivo
From the text: The compounds of Formula I of the present invention are useful as analgesic agents due to their ability to alleviate pain in mammals. […] Exptl. Biol. Med., 95, 729 (1957)].

| Compound | Analgesic PQW, % Inhibition of Writhing at 20 mg/kg., s.c. |
| --- | --- |
| Cc1nnc2n1-c1ccccc1-c1cc3ccccc3n1C2 [Example 7, 1-Methyl-4H-indolo[1,2-d][1,2,4]triazolo[4,3-a][1,4]benzodiazepine] | 37% |
| Cc1nnc2n1-c1ccccc1-c1c(Cl)c3ccccc3n1C2 [Example 8, 10-chloro-1-methyl-4H-indolo-[1,2-d][1,2,4]triazolo[4,3-a]-[1,4]benzodiazepine] | 51% |
| Cc1nnc2n1-c1ccc(Cl)cc1-c1cc3ccccc3n1C2 [Example 9, 12-Chloro-1-methyl-4H-indolo[1,2-d][1,2,4]triazolo[4,3-a][1,4]benzodiazepine] | 46% |
| Cc1nnc2n1-c1ccc(Cl)cc1-c1c(Cl)c3ccccc3n1C2 [Example 11, 10,12-Dichloro-1-methyl-4H-indolo[1,2-d][1,2,4]triazolo[4,3-a][1,4]benzodiazepine] | 32% |
